Measured values: patent US20230384322A1, “COMPLEMENTOME ASSAY” (Complement Therapeutics Limited, priority 2020, published 2023)

Columns and labels:
U87 GBM cells = experiment: Real-time RT-PCR of CFH/FHL-1/IDO expression in cultured U87 GBM cells; format: cell-based, human
Experimental: (§1) FIGS. 13A to 13E. Indoleamine 2,3 dioxygenase 1 (IDO) non-metabolically increases complement factor H (CFH) levels in human glioblastoma (GBM). (13A) Flow chart for the microarray experimental design, data analysis, as well as validation of results. Real-time RT-PCR confirmation of IDO regulatory effects on CFH expression in cultured (13B) U87 or (13C) PDX43 GBM. Cells were exposed to a variety of conditions including transfection with IDO specific siRNA (20 nM) or scrambled control siRNA for 16 hours, treatment with or without 100 ng/mL human interferon-gamma (IFN-γ), treatment with or without the IDO enzyme inhibitor, BGB-5777 (1 uM), or IFNγ plus BGB-5777 for 24 hours. Quantitative RT-PCR was performed (n=3 reflecting one representative experiment from 4 experimental repeats). (13D) Quantitative RT-PCR analysis of IDO and CFH mRNA expression on IFNγ-stimulated U87 cells treated with CFH siRNA or scrambled control siRNA. Same experimental conditions as in [13B] (n=3/group reflecting one representative experiment from 3 experimental repeats). (13E) mRNA expression levels for human IDO, CFH, and CD3 were quantified and compared among intracranial PDX43 and patient-resected newly-diagnosed or recurrent intracranial human GBM (n=4-9/group). Intracranially-engrafted (ic.) PDX43 was isolated from humanized mice with or without treatment of CD4′ and CD8^+ T cell depleting antibodies between 14-21 days post-intracranial injection. ***, P<0.001; ND: not detectable, ns: not significant. All bar graphs represent mean±SEM.
FIGS. 15A to 15H. Indoleamine 2,3 dioxygenase 1 (IDO) enhances the expression of both complement factor H (CFH) isoforms in human glioblastoma (GBM). (15A) Schematic representation of CFH transcript variants reflecting the full-length (CFH) and truncated (FHL-1) sequences. Pearson's correlation analysis of (15B) IDO and (15C) CD3E with CFH and FHL-1 using the TCGA GBM RNA-Seq dataset. (15D) Left panel: Western blot analysis of surgically-resected tumor tissue samples from both newly diagnosed GBM patients and recurrent GBM patients. Right panel: Protein expression of full-length and truncated CFH variants and IDO in IFNγ-stimulated U87 cells. Cells were treated with IFNγ and cultured in serum-free medium for 24 to 48 hours. Both cell lysates and cell culture supernatants were collected. The supernatants were concentrated with ultrafiltration and analyzed by Western blot along with cell lysate samples. One representative result is shown that reflects 4 experimental repeats. (15E) Time course analysis of IDO, CFH, FHL-1 mRNA expression after treatment with IFNγ in U87 (top row) and PDX43 (bottom row) GBM cells. The U87 cells were stimulated with 100 ng/ml human IFNγ and RNA lysates were extracted followed by quantitative RT-PCR analysis (n=4). (15F) Western blot of cell lysates and supernatants collected from the same experimental design as in top panel. Data from one representative experiment from 2 experiments are shown. (15G) Top panel: Western blot showing IDO protein levels in unmodified (Unmod.) as well as in CRISPR-Cas9 IDO-deleted (IDOKO) U87 cells. Unmod. U87 cells and IDOKO U87 cells were stimulated with 100 ng/mL human IFNγ for 24 hours. Protein lysates were collected from both untreated and IFNγ treated cells followed by Western blotting analysis; Lower panel: HPLC measurement of kynurenine (Kyn) and tryptophan (Trp) in Unmod. U87 and IDOKO U87 cells. (15H) Comparison of IDO, CFH, and FHL-1 mRNA expression induction in Unmod. and IDOKO U87 cells using quantified RT-PCR (n=3 per group that reflects 1 representative experiment after 2 repeats). ***, P<0.001; ND: not detectable. All bar graphs represent mean±SEM.
The microarray analysis was carried out at the Northwestern University NUSeq Core Facility using the human transcriptome analysis system, Clariom™ D Assay (Thermo Fisher Scientific). Briefly, 1×10^5 cells per well of U87 cells or IDO-OE U87 cells were seeded on 12-well plate. […]

[1] = tested on: U87, PDX12, PDX39, and PDX43; experiment: In vitro expression analysis of human CFH mRNA in different GBM cells with or without human IFNγ; format: cell-based
From the text: FIGS. 14A to 14I. Indoleamine 2,3 dioxygenase 1 (IDO) and complement factor H (CFH) mRNA levels positively correlate with T cell infiltration in patient-resected glioblastoma (GBM). (14A) mRNA expression levels for IDO and CFH in grade II (green; n=226), grade III (blue; n=249), and grade IV (GBM; red; n=172) glioma of the RNA Hi-Seq. Illumina dataset as analyzed in the cancer genome atlas (TCGA). Horizontal lines in the scatter plots represents mean±SEM. (14B) Pearson's correlation analysis for IDO and CFH mRNA levels within GBM and all-grade glioma. […] CFH mRNA levels were analyzed in U87 GBM cells co-cultured with either naïve or activated T cells or conditioned medium from activated T cells in the presence or absence of IFNγ-neutralizing antibodies. […]
Total RNA was extracted from freshly dissected tissue samples and cultured cells using the Trizol Reagent and PureLink RNA Mini Kit (Thermo Fisher Scientific), respectively. […] Quantitative real-time PCR was performed on a CFX96 Touch Real-Time PCR Detection System using the default program setting (Bio-Rad). […] The relative quantitation of gene expression was calculated using the 2-AACT method (29) with normalization of the target threshold cycle (CT) values to the internal housekeeping gene (GAPDH).

U87 cells = experiment: Western blotting of CFH, FHL-1 and IDO in U87 cell lysates and supernatants; format: cell-based, human; conditions: serum-free medium 24 to 48 hours
From the text: FIGS. 15A to 15H. Indoleamine 2,3 dioxygenase 1 (IDO) enhances the expression of both complement factor H (CFH) isoforms in human glioblastoma (GBM). (15A) Schematic representation of CFH transcript variants reflecting the full-length (CFH) and truncated (FHL-1) sequences. Pearson's correlation analysis of (15B) IDO and (15C) CD3E with CFH and FHL-1 using the TCGA GBM RNA-Seq dataset. (15D) Left panel: Western blot analysis of surgically-resected tumor tissue samples from both newly diagnosed GBM patients and recurrent GBM patients. Right panel: Protein expression of full-length and truncated CFH variants and IDO in IFNγ-stimulated U87 cells. Cells were treated with IFNγ and cultured in serum-free medium for 24 to 48 hours. Both cell lysates and cell culture supernatants were collected. The supernatants were concentrated with ultrafiltration and analyzed by Western blot along with cell lysate samples. One representative result is shown that reflects 4 experimental repeats. […] The U87 cells were stimulated with 100 ng/ml human IFNγ and RNA lysates were extracted followed by quantitative RT-PCR analysis (n=4). […] (15H) Comparison of IDO, CFH, and FHL-1 mRNA expression induction in Unmod. and IDOKO U87 cells using quantified RT-PCR (n=3 per group that reflects 1 representative experiment after 2 repeats). ***, P<0.001; ND: not detectable. […]

PDX43 GBM cells = experiment: Real-time RT-PCR of CFH/FHL-1/IDO expression in cultured PDX43 GBM cells; format: cell-based, human; conditions: IFNγ time course
Experimental: as §1, with “Same experimental conditions as in [13B] (n=3/group reflecting one representative experiment from 3 experimental repeats).” left out, “Intracranially-engrafted (ic.) PDX43 was isolated from humanized mice with or without treatment of CD4′ and CD8^+ T cell depleting antibodies between 14-21 days post-intracranial injection. ***, P<0.001; ND: not detectable, ns: not significant. All bar graphs represent mean±SEM.” left out
FIGS. 15A to 15H. […] The supernatants were concentrated with ultrafiltration and analyzed by Western blot along with cell lysate samples. […] The U87 cells were stimulated with 100 ng/ml human IFNγ and RNA lysates were extracted followed by quantitative RT-PCR analysis (n=4). […]

## IDO-specific siRNA: human IDO-specific siRNA duplex (GE Health Dharmacon), SEQ ID NO:174 and 175 (chain 1 GCUUAUGACGCCUGUGUGAUU; chain 2 UCACACAGGCGUCAUAAGCUU; listed as RNA, chemistry not given here; listed as Homo sapiens)
U87 GBM cells; U87 cells, siRNA 20 nM, 16 hours
  Effect on CFH expression (quantitative RT-PCR): decreased expression of CFH

## IFNγ: human recombinant interferon-gamma (Shenandoah Biotechnology), T cell effector cytokine
[1]
  Effect on CFH mRNA expression in human GBM cells: increased CFH expression
U87 cells
  CFH and FHL-1 protein expression in cell culture supernatants (Western blot): higher
PDX43 GBM cells
  Earliest time full-length and truncated CFH variants increased after treatment: 12 h
U87 GBM cells; 100 ng/ml human IFNγ time course
  Earliest time IDO mRNA expression is detectable after treatment: 4 h
U87 GBM cells; CRISPR-Cas9 IDO-deleted (IDOKO) U87 cells
  IDO, CFH and FHL-1 mRNA expression induction: no such increase
U87 GBM cells; U87 cells, 100 ng/mL, 24 hours
  Effect on CFH expression (quantitative RT-PCR): increase of CFH expression
U87 GBM cells; U87 cells, 100 ng/ml human IFNγ time course
  Earliest time full-length and truncated CFH variants increased after treatment: 12 h
U87 GBM cells; unmodified U87 cells, 100 ng/mL
  IDO, CFH and FHL-1 mRNA expression induction: induced and upregulated

B1: Complement Factor I (FI) (protein)
chain: KVTYTSQEDLVEKKCLAKKYTHLSCDKVFCQPWQRCIEGTCVCKLPYQCPKNGTAVCATNRRSFPTYCQQKSLECLHPGTKFLNNGTCTAEGKFSVSLKHGNTDSEGIVEVKLVDQDKTMFICKSSWSMREANVACLDLGFQQGADTQRRFKLSDLSINSTECLHVHCRGLETSLAECTFTKRRTMGYQDFADVVCYTQKADSPMDDFFQCVNGKYISQMKACDGINDCGDQSDELCCKACQGKGFHCKSGVCIPSQYQCNGEVDCITGEDEVGCAGFASVTQEETEILTADMDAERRRIKSLLPKLSCGVKNRMHIRRKRIVGGKRAQLGDLPWQVAIKDASGITCGGIYIGGCWILTAAHCLRASKTHRYQIWTTVVDWIHPDLKRIVIEYVDRIIFHENYNAGTYQNDIALIEMKKDGNKKDCELPRSIPACVPWSPYLFQPNDTCIVSGWGREKDNERVFSLQWGEVKLISNCSKFYGNRFYEKEMECAGTYDGSIDACKGDSGGPLVCMDANNVTYVWGVVSWGENCGKPEFPGVYTKVANYFDWISYHVGRPFISQYNV
C3b
  C3b breakdown in vitro (C3b incubated with FI and a fragment of cofactor CR1; time course followed by gel electrophoresis and GluC/SRM-MS): the formation of C3b fragments iC3b, C3f and C3c, and loss of intact C3b can be clearly detected over time
